Results as given in paper PMC8909834, “An Orally Bioavailable and Highly Efficacious Inhibitor of CDK9/FLT3 for the Treatment of Acute Myeloid Leukemia” (Cancers, 2022).

Tests used:
Assay in all cases: Kinase Hotspot radiolabel assay
Assay type in all cases: biochemical
Conditions in all cases: read-out: % Residual Activity
PKCg = biological target: T1, PKCg (Homo sapiens, UniProt P05129)
T1 construct: purchased Reaction Biology Corporation (Kinase HotSpot)
Summary of the method: (§1)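 Hotspot radioactive kinase assay, compound fixed at 1 µM, broad 369-kinase selectivity screen.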

BRAF = biological target: T2, BRAF (Homo sapiens, UniProt P15056)
T2 construct: purchased Reaction Biology Corporation (Kinase HotSpot)
Summary of the method: as §1

NLK = biological target: T3, NLK (Homo sapiens, UniProt Q9UBE8)
T3 construct: purchased Reaction Biology Corporation (Kinase HotSpot)
Summary of the method: as §1

JNK3 = biological target: T4, JNK3 (Homo sapiens, UniProt P53779)
T4 construct: purchased Reaction Biology Corporation (Kinase HotSpot)
Summary of the method: as §1

ERK2/MAPK1 = biological target: T5, ERK2/MAPK1 (Homo sapiens, UniProt P28482)
T5 construct: purchased Reaction Biology Corporation (Kinase HotSpot)
Summary of the method: as §1

FER = biological target: T6, FER (Homo sapiens, UniProt P16591)
T6 construct: purchased Reaction Biology Corporation (Kinase HotSpot)
Summary of the method: as §1

BMX/ETK = biological target: T7, BMX/ETK (Homo sapiens, UniProt P51813)
T7 construct: purchased Reaction Biology Corporation (Kinase HotSpot)
Summary of the method: as §1

PLK4/SAK = biological target: T8, PLK4/SAK (Homo sapiens, UniProt O00444)
T8 construct: purchased Reaction Biology Corporation (Kinase HotSpot)
Summary of the method: as §1

BMPR2 = biological target: T9, BMPR2 (Homo sapiens, UniProt Q13873)
T9 construct: purchased Reaction Biology Corporation (Kinase HotSpot)
Summary of the method: as §1

DYRK1/DYRK1A = biological target: T10, DYRK1/DYRK1A (Homo sapiens, UniProt Q13627)
T10 construct: purchased Reaction Biology Corporation (Kinase HotSpot)
Summary of the method: as §1

MSSK1/STK23 = biological target: T11, MSSK1/STK23 (Homo sapiens, UniProt Q9UPE1)
T11 construct: purchased Reaction Biology Corporation (Kinase HotSpot)
Summary of the method: as §1

TEC = biological target: T12, TEC (Homo sapiens, UniProt P42680)
T12 construct: purchased Reaction Biology Corporation (Kinase HotSpot)
Summary of the method: as §1

STK39/STLK3 = biological target: T13, STK39/STLK3 (Homo sapiens, UniProt Q9UEW8)
T13 construct: purchased Reaction Biology Corporation (Kinase HotSpot)
Summary of the method: as §1

TESK1 = biological target: T14, TESK1 (Homo sapiens, UniProt Q15569)
T14 construct: purchased Reaction Biology Corporation (Kinase HotSpot)
Summary of the method: as §1

MLCK2/MYLK2 = biological target: T15, MLCK2/MYLK2 (Homo sapiens, UniProt Q9H1R3)
T15 construct: purchased Reaction Biology Corporation (Kinase HotSpot)
Summary of the method: as §1

IKKe/IKBKE = biological target: T16, IKKe/IKBKE (Homo sapiens, UniProt Q14164)
T16 construct: purchased Reaction Biology Corporation (Kinase HotSpot)
Summary of the method: as §1

MEK3 = biological target: T17, MEK3 (Homo sapiens, UniProt P46734)
T17 construct: purchased Reaction Biology Corporation (Kinase HotSpot)
Summary of the method: as §1

CK1a1 = biological target: T18, CK1a1 (Homo sapiens, UniProt P48729)
T18 construct: purchased Reaction Biology Corporation (Kinase HotSpot)
Summary of the method: as §1

CAMK1g = biological target: T19, CAMK1g (Homo sapiens, UniProt Q96NX5)
T19 construct: purchased Reaction Biology Corporation (Kinase HotSpot)
Summary of the method: as §1

IRAK1 = biological target: T20, IRAK1 (Homo sapiens, UniProt P51617)
T20 construct: purchased Reaction Biology Corporation (Kinase HotSpot)
Summary of the method: as §1

PRKX = biological target: T21, PRKX (Homo sapiens, UniProt P51817)
T21 construct: purchased Reaction Biology Corporation (Kinase HotSpot)
Summary of the method: as §1

TBK1 = biological target: T22, TBK1 (Homo sapiens, UniProt Q9UHD2)
T22 construct: purchased Reaction Biology Corporation (Kinase HotSpot)
Summary of the method: as §1

LRRK2 = biological target: T23, LRRK2 (Homo sapiens, UniProt Q5S007)
T23 construct: purchased Reaction Biology Corporation (Kinase HotSpot)
Summary of the method: as §1

ULK2 = biological target: T24, ULK2 (Homo sapiens, UniProt Q8IYT8)
T24 construct: purchased Reaction Biology Corporation (Kinase HotSpot)
Summary of the method: as §1

GSK3a = biological target: T25, GSK3a (Homo sapiens, UniProt P49840)
T25 construct: purchased Reaction Biology Corporation (Kinase HotSpot)
Summary of the method: as §1

AKT2 = biological target: T26, AKT2 (Homo sapiens, UniProt P31751)
T26 construct: purchased Reaction Biology Corporation (Kinase HotSpot)
Summary of the method: as §1

GRK3 = biological target: T27, GRK3 (Homo sapiens, UniProt P35626)
T27 construct: purchased Reaction Biology Corporation (Kinase HotSpot)
Summary of the method: as §1

ASK1/MAP3K5 = biological target: T28, ASK1/MAP3K5 (Homo sapiens, UniProt Q99683)
T28 construct: purchased Reaction Biology Corporation (Kinase HotSpot)
Summary of the method: as §1

ERN2/IRE2 = biological target: T29, ERN2/IRE2 (Homo sapiens, UniProt Q76MJ5)
T29 construct: purchased Reaction Biology Corporation (Kinase HotSpot)
Summary of the method: as §1

PBK/TOPK = biological target: T30, PBK/TOPK (Homo sapiens, UniProt Q96KB5)
T30 construct: purchased Reaction Biology Corporation (Kinase HotSpot)
Summary of the method: as §1

T6 sequence (P16591 whole entry): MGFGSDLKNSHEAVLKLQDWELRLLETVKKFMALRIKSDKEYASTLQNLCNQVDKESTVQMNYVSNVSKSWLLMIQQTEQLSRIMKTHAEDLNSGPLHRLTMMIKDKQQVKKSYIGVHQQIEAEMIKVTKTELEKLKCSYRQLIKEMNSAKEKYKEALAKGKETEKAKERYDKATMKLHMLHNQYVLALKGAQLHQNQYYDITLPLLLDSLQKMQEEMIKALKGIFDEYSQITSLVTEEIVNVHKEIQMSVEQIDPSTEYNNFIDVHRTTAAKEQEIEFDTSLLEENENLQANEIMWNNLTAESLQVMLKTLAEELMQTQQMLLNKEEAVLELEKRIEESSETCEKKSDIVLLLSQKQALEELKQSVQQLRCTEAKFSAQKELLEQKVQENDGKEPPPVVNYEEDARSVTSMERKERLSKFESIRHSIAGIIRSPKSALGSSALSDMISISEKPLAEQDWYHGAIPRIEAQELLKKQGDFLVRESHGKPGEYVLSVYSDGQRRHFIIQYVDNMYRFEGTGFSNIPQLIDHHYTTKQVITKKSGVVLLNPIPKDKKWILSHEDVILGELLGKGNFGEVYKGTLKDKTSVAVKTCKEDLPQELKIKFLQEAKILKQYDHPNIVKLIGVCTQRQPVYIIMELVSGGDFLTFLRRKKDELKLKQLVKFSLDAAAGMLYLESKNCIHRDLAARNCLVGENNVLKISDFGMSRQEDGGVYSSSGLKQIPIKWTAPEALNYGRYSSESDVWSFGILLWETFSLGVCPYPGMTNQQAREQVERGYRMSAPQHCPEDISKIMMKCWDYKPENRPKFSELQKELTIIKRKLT
T7 sequence (P51813 whole entry): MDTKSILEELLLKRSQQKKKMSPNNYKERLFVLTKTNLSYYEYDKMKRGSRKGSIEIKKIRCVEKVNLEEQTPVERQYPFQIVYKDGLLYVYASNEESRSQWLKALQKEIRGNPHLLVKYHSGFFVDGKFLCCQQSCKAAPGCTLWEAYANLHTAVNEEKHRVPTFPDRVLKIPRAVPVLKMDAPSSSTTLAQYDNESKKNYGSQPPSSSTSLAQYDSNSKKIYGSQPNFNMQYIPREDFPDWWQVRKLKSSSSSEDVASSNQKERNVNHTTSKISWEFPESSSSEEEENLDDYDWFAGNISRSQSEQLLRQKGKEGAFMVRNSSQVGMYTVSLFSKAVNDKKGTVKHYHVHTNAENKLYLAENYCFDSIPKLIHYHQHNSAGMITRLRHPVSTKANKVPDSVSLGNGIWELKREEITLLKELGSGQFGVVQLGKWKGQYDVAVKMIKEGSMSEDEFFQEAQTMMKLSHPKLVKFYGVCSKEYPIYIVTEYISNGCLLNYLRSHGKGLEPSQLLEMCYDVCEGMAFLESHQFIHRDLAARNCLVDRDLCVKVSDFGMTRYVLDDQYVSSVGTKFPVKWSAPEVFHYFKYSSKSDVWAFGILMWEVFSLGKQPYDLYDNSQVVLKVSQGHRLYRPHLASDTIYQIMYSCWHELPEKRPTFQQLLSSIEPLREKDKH
T27 sequence (P35626 whole entry): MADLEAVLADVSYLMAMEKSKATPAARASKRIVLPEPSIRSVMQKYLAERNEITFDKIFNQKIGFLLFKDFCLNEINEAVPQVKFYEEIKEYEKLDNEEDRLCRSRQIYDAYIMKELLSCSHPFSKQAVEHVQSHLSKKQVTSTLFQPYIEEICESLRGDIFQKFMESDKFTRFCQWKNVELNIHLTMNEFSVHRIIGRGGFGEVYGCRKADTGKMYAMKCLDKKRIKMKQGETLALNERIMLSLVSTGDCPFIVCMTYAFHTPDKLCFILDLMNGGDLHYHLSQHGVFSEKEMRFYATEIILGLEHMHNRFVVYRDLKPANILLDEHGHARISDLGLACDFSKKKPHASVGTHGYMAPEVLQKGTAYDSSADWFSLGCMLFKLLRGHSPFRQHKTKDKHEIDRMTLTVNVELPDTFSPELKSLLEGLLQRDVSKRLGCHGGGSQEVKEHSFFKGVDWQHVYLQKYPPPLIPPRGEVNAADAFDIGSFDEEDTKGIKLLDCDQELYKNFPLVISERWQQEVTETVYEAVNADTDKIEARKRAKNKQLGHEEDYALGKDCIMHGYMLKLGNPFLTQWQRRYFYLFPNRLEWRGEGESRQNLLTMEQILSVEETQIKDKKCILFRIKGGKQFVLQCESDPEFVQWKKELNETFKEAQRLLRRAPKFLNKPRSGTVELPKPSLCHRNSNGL
T21 sequence (P51817 whole entry): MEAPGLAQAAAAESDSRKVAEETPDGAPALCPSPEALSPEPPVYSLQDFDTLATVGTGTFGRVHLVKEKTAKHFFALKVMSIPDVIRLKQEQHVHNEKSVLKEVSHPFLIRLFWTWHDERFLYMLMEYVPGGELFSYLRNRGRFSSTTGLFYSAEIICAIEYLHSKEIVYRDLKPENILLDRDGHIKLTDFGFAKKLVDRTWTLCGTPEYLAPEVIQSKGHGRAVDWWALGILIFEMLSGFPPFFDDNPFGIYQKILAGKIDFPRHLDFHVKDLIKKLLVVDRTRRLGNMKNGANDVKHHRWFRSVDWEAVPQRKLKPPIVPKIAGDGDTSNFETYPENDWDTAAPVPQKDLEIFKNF
T16 sequence (Q14164 whole entry): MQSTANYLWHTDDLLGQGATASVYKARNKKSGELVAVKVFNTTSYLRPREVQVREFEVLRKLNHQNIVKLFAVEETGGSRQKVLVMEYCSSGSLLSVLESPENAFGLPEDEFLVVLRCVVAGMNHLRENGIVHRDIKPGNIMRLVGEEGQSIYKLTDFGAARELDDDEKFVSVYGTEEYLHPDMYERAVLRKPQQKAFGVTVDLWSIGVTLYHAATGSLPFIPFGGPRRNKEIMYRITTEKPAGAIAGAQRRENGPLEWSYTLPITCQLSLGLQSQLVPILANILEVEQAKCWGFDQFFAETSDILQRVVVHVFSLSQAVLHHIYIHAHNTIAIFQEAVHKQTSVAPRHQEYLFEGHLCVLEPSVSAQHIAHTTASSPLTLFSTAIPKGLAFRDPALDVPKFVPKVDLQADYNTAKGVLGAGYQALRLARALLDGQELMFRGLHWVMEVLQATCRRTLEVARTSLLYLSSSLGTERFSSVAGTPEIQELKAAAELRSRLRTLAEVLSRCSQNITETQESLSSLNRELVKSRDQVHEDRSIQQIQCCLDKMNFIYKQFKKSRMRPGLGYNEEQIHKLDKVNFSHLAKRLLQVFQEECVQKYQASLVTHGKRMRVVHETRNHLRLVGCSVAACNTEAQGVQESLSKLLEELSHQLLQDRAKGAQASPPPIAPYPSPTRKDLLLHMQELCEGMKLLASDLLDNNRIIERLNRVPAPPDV
T15 sequence (Q9H1R3 whole entry): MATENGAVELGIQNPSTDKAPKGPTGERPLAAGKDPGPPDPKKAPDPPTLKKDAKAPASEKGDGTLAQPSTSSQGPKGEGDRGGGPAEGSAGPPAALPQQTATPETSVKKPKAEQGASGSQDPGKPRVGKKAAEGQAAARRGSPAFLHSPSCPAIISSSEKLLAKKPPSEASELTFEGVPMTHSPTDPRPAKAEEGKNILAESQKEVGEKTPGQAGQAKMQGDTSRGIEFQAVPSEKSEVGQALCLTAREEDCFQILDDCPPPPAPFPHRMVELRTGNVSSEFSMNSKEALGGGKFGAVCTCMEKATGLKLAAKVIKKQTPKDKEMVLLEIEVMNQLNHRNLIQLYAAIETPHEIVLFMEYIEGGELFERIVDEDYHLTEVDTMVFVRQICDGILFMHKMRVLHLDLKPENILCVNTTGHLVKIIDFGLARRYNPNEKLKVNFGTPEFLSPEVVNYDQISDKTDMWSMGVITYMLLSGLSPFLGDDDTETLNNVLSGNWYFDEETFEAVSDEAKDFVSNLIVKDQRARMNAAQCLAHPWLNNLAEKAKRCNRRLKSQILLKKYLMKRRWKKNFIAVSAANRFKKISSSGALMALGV
T19 sequence (Q96NX5 whole entry): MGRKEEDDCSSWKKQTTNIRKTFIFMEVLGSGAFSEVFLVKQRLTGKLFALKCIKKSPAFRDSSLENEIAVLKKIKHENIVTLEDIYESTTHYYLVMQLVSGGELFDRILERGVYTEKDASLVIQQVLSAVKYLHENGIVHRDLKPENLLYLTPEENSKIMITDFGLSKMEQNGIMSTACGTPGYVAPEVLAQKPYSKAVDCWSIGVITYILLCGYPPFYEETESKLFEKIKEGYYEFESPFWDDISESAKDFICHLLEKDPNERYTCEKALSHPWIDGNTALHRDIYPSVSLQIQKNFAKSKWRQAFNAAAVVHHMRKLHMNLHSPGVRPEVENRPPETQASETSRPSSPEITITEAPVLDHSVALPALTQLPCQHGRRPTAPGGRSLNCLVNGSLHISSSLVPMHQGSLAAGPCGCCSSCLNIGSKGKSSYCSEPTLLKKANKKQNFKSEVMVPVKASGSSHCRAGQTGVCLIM
T4 sequence (P53779 whole entry): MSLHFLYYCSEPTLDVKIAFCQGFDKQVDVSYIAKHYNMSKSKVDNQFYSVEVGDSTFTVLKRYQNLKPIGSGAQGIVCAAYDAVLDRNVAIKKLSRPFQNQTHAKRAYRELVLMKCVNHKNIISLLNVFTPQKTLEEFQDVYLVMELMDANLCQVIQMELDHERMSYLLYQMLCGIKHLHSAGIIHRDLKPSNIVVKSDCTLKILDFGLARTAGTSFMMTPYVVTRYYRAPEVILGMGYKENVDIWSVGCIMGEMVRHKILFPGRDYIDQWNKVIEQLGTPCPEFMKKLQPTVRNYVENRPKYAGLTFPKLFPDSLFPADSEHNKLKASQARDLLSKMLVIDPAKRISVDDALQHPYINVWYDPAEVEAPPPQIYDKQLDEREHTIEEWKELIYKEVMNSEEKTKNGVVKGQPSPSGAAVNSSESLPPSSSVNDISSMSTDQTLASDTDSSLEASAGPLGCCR

With `Cc1cnc(N[C@H]2CC[C@H](N)CC2)nc1-c1cnc2ccc(-c3ccccc3)cn12` [CDDD11-8] the remaining activity at 1 µM (PKCg) was 87.9%, the remaining activity at 1 µM (BRAF) was 99.7% and the remaining activity at 1 µM (NLK) was 83.4%. It also gave a remaining activity at 1 µM (JNK3) of 81.3%, a remaining activity at 1 µM (ERK2/MAPK1) of 109% and a remaining activity at 1 µM (FER) of 70%. For the same molecule, the remaining activity at 1 µM (BMX/ETK) was 71.2%, the remaining activity at 1 µM (PLK4/SAK) was 89.3% and the remaining activity at 1 µM (BMPR2) was 90.2%. For the same molecule, the remaining activity at 1 µM (DYRK1/DYRK1A) was 63.9%, the remaining activity at 1 µM (MSSK1/STK23) was 90.8% and the remaining activity at 1 µM (TEC) was 101%. It also gave a remaining activity at 1 µM (STK39/STLK3) of 45.7%, a remaining activity at 1 µM (TESK1) of 113% and a remaining activity at 1 µM (MLCK2/MYLK2) of 25.9%. It also gave a remaining activity at 1 µM (IKKe/IKBKE) of 91.7%, a remaining activity at 1 µM (MEK3) of 71.5% and a remaining activity at 1 µM (CK1a1) of 102%. For the same molecule, the remaining activity at 1 µM (CAMK1g) was 97.7%, the remaining activity at 1 µM (IRAK1) was 91.9% and the remaining activity at 1 µM (PRKX) was 77.4%. For the same molecule, the remaining activity at 1 µM (TBK1) was 94.6%, the remaining activity at 1 µM (LRRK2) was 70.6% and the remaining activity at 1 µM (ULK2) was 113%. It also gave a remaining activity at 1 µM (GSK3a) of 70.1%, a remaining activity at 1 µM (AKT2) of 116% and a remaining activity at 1 µM (GRK3) of 91.9%. The remaining activity at 1 µM (ASK1/MAP3K5) was 90.2%, the remaining activity at 1 µM (ERN2/IRE2) was 45.4% and the remaining activity at 1 µM (PBK/TOPK) was 102%.
